Results published in patent publication US20130331427A1, “METHODS OF STIMULATING CELLULAR GROWTH, SYNAPTIC, REMODELING AND CONSOLIDATION OF LONG-TERM MEMORY” (Blanchette Rockefeller Neuroscience Institute, priority 2007, published 2013).

Columns and labels:
[1] = system: PKC; conditions: cited from earlier work
[2] = cited from earlier work
[3] = system: CA1 neurons; test: acute hippocampal slices, number of dendritic spines (spinophilin); type: cell-based; conditions: 0.1 nM, spine marker spinophilin
[4] = system: sAPP secretion; test: sAPP secretion with bryostatin-1; type: cell-based; conditions: 0.1 nM
From the text: Of particular interest are macrocyclic lactones (i.e. bryostatin class and neristatin class) that act to stimulate PKC. […] Bryostatin is currently in clinical trials as an anti-cancer agent. The bryostatins are known to bind to the regulatory domain of PKC and to activate the enzyme. […] (See, for example, WO 97/43268; incorporated herein by reference in its entirety).

[5] = system: Hermissenda Crassicornis; test: Pavlovian conditioning of Hermissenda, memory retention; type: in vivo
Experimental: Specimens of Hermissenda Crassicornis were maintained in artificial sea water (ASW) at 15° for three days in perforated 50-ml conical centrifuge tubes before starting experiments. […] For selected experiments lactacysteine (10 μM) or anisomycin was added to the ASW.
Pavlovian conditioning of Hermissenda involves repeated pairings of a neutral stimulus, light, with an unconditioned stimulus, orbital shaking. (See, Lederhendler et al. (24) and Epstein et al. (6)). A rotation/shaking stimulus excites the statocyst hair cells and thereby elicits an unconditioned response: a brisk contraction of the muscular undersurface called a foot, accompanied by adherence or “clinging” to the surface that supports the foot. Before conditioning, light elicits a weakly positive phototaxis accompanied by lengthening of the foot. After sufficient light-rotation pairings, light no longer elicits phototaxis, but instead elicits a new response (24): the “clinging” and foot shortening previously elicited only by the unconditional stimulus (FIG. 1). Thus, the meaning of the unconditioned stimulus, rotation or orbital shaking, has been transferred to the conditioned stimulus and is manifested by a light-elicited foot contraction—a negative change of foot length. This conditioned response to light can last for weeks, is not produced by randomized light and rotation, is stimulus-specific, and shares the other defining characteristics of mammalian Pavlovian Conditioning.
Pavlovian conditioning of Hermissenda has well-defined training parameters that produce progressively longer-lasting retention of the learned conditioned response. Two training events (2 TE) of paired light and orbital shaking (see “Methods”), for example, induce a learned conditioned response (light-elicited foot contraction or shortening) that persists without drug treatment for approximately 7 minutes. Four to six training events (4-6 TE) induce a conditioned response that persists up to several hours, but disappears approximately by 1 day after training. Nine TE produces long-term associative memory lasting many days and often up to two weeks.
All animals were tested with the CS alone at 4 h, then at 24-h intervals.

## CCC/C=C/C=C/C(=O)O[C@H]1/C(=C/C(=O)OC)C[C@H]2C[C@H]([C@@H](C)O)OC(=O)C[C@H](O)C[C@@H]3C[C@H](OC(C)=O)C(C)(C)[C@](O)(C[C@@H]4C/C(=C/C(=O)OC)C[C@H](/C=C/C(C)(C)[C@]1(O)O2)O4)O3 [bryostatin, bryostatin-1]
[1]
  concentrations that activate PKC: sub-nanomolar
[2]; 20 μg/m^2 once per week for 3 weeks
  tolerability: well tolerated
[2]; 1 hour i.v. infusion once every 2 weeks for 6 weeks
  maximum-tolerated dose: 50 μg/m^2
[2]; once per week for 8 weeks
  maximum tolerated dose: 25 μg/m^2
[2]; phase II clinical trials
  myalgia reported, share of all treated patients: 10 to 87%
[3]
  number of dendritic spines: augmented
[3]; listed as Bryostatin
  number of dendritic spines: increased
[4]
  sAPP secretion: dramatic increase of sAPP secretion
[5]; 2 TE plus bryostatin 0.25 ng/ml for 4 h during and after training, minutes without
  memory retention: lasting hours
[5]; 4 TEs plus bryostatin 0.25 ng/ml for 4 h
  memory retention: > 24 h
[5]; 20 h pre-exposure 0.25 ng/ml, 4-paired TE, at 48 h
  retention: persisted
[5]; 20 hr exposure 0.25 ng/ml, 2-paired TE
  time by which retention was gone: ≤ 48 h
[5]; all training conditions tested
  concentration that inhibited acquisition and behavioral retention: greater than 1.0 ng/ml
[5]; low doses (0.1-0.25 ng/ml)
  memory after 2, 4, or 6 training trials: markedly enhanced memory
[5]; randomized presentations of light and rotation
  conditioned response: no conditioned response
[5]; single 4 h exposure 0.25 ng/ml alone, 2-paired TEs 24 hrs later
  time after which behavioral retention was lost: ≤ 24 h
[5]; sub-optimal (4 TE) training
  concentrations that augment acquisition and memory retention: < 0.50 ng/mL
[5]; three successive days of 4-h exposure 0.25 ng/ml, 2-TEs one day later
  long-term retention (LTR) post-training: ≥ 96 h
[5]; two successive days of 4-h exposure 0.25 ng/ml, 2-paired TEs
  long-term retention: at least 6 days
